Consider six molecules from patent US11986532B2 (Arvinas Operations, Inc., priority 2021, dated 2024).

The target in this experiment is T1, BCL6 (Homo sapiens, UniProt P41182).
T1 construct: endogenous in cells; host or cells: T47D breast cancer epithelial cells
The experiment is described as follows: Immunofluorescence protocol for high content imaging of BCL6 (degradation) in T47D cells, 3 days compound treatment. The experiment is classed as cell-based. As to conditions: T47D cells, 3 days compound treatment; for DC50: read-out: Mean DC50 (nM)* category; for Dmax: read-out: Mean Dmax (%)** category. In outline:
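For degradation, compound series (3-fold, 11 points, top 0.1 or 1 μM final) were added to adherent T47D cultures for 3 days. BCL6 immunostaining used a rabbit antibody at 1:300 and an Alexa-488 secondary, with imaging at 10× magnification.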

As to `CNC(=O)COc1cc2cc(Nc3nc(N4CCC(CN5CCC6(CN(c7ccc8c(c7)C(=O)N(C7CCC(=O)NC7=O)C8=O)C6)C(F)(F)C5)CC4)ncc3Cl)ccc2n(C(C)C)c1=O` (stereo not drawn) [Compound 38, 2-{[6-({5-chloro-2-[4-({2-[2-(2,6-dioxopiperidin-3-yl)-1,3-dioxo-2,3-dihydro-1H-isoindol-5-yl]-5,5-difluoro-2,7-diazaspiro[3.5]nonan-7-yl}methyl)piperidin-1-yl]pyrimidin-4-yl}amino)-2-oxo-1-(propan-2-yl)-1,2-dihydroquinolin-3-yl]oxy}-N-methylacetamide], the DC50 was under 10 nM and the Dmax was in the range of 50 to 70%.
For `CNC(=O)COc1cc2cc(Nc3nc(N4CCC(CN5CCC6(CC(=O)N(c7ccc8c(c7)CN(C7CCC(=O)NC7=O)C8=O)C6)C5)CC4)ncc3Cl)ccc2n(C(C)C)c1=O` (stereo not drawn) [Compound 39, 2-{[6-({5-chloro-2-[4-({7-[2-(2,6-dioxopiperidin-3-yl)-1-oxo-2,3-dihydro-1H-isoindol-5-yl]-8-oxo-2,7-diazaspiro[4.4]nonan-2-yl}methyl)piperidin-1-yl]pyrimidin-4-yl}amino)-2-oxo-1-(propan-2-yl)-1,2-dihydroquinolin-3-yl]oxy}-N-methylacetamide] the same measures were under 10 nM and 50 to 70%.
For `CNC(=O)COc1cc2cc(Nc3nc(N4CCN(C[C@H]5C[C@@H](N6CCC(c7ccc8c(c7)C(=O)N(C7CCC(=O)NC7=O)C8=O)CC6)C5)CC4)ncc3Cl)ccc2n(C(C)C)c1=O` (stereo partly drawn) [Compound 40, 2-[(6-{[5-chloro-2-(4-{[(1s,3s)-3-{4-[2-(2,6-dioxopiperidin-3-yl)-1,3-dioxo-2,3-dihydro-1H-isoindol-5-yl]piperidin-1-yl}cyclobutyl]methyl}piperazin-1-yl)pyrimidin-4-yl]amino}-2-oxo-1-(propan-2-yl)-1,2-dihydroquinolin-3-yl)oxy]-N-methylacetamide], the DC50 is 10 to 50 nM and the Dmax is 50 to 70%.
For `CNC(=O)COc1cc2cc(Nc3nc(N4CCN(C[C@H]5C[C@H](N6CCC(c7ccc8c(c7)C(=O)N(C7CCC(=O)NC7=O)C8=O)CC6)C5)CC4)ncc3Cl)ccc2n(C(C)C)c1=O` (stereo partly drawn) [Compound 41, 2-[(6-{[5-chloro-2-(4-{[(1r,3r)-3-{4-[2-(2,6-dioxopiperidin-3-yl)-1,3-dioxo-2,3-dihydro-1H-isoindol-5-yl]piperidin-1-yl}cyclobutyl]methyl}piperazin-1-yl)pyrimidin-4-yl]amino}-2-oxo-1-(propan-2-yl)-1,2-dihydroquinolin-3-yl)oxy]-N-methylacetamide], in that order: 50 to 100 nM and at least 70%.
For `CNC(=O)COc1cc2cc(Nc3nc(N4CCC(OC5CCC(N6CCC(c7ccc8c(c7)C(=O)N(C7CCC(=O)NC7=O)C8=O)CC6)C5)CC4)ncc3Cl)ccc2n(C(C)C)c1=O` (stereo not drawn) [Compound 42, 2-({6-[(5-chloro-2-{4-[(3-{4-[2-(2,6-dioxopiperidin-3-yl)-1,3-dioxo-2,3-dihydro-1H-isoindol-5-yl]piperidin-1-yl}cyclopentyl)oxy]piperidin-1-yl}pyrimidin-4-yl)amino]-2-oxo-1-(propan-2-yl)-1,2-dihydroquinolin-3-yl}oxy)-N-methylacetamide], in that order: 10 to 50 nM and 50 to 70%.
For `CNC(=O)COc1cc2cc(Nc3nc(N4CCC(F)(CN5CCC6(CC5)CN(c5ccc7c(c5)C(=O)N(C5CCC(=O)NC5=O)C7=O)C6)CC4)ncc3Cl)ccc2n(C(C)C)c1=O` (stereo not drawn) [Compound 43, 2-{[6-({5-chloro-2-[4-({2-[2-(2,6-dioxopiperidin-3-yl)-1,3-dioxo-2,3-dihydro-1H-isoindol-5-yl]-2,7-diazaspiro [3.5]nonan-7-yl}methyl)-4-fluoropiperidin-1-yl]pyrimidin-4-yl}amino)-2-oxo-1-(propan-2-yl)-1,2-dihydroquinolin-3-yl]oxy}-N-methylacetamide], in that order: 10 to 50 nM and 50 to 70%.

What is called DC50 is the concentration giving 50% degradation. In general, Dmax refers to the greatest extent of degradation seen.
